System: NOMO1
Assay: cell viability relative to DMSO control; higher = less cytotoxic
Conditions: 48 h
How it was run: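 Viability values are per-plate percentages of DMSO wells, with background from cell-free wells. Library compounds in DMSO were pin-dosed, in an 11-point threefold series from 47 μM to 0.79 nM, onto NOMO1 or SEM (500 cells/well) or P12-Ichikawa (1000 cells/well) leukemia cells in 1536-well plates (5 μl). Those cells had been adapted for at least four passages in each medium, and CellTiter-Glo One luminescence was read after 48 h at 37°C.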

[1] = RPMI 5 mM glucose + 10% FBS, 0.000781 µM
[2] = RPMI 5 mM glucose + 10% FBS, 0.00234 µM
[3] = RPMI 5 mM glucose + 10% FBS, 0.00702 µM
[4] = RPMI 5 mM glucose + 10% FBS, 0.0211 µM
[5] = RPMI 5 mM glucose + 10% FBS, 0.0632 µM
[6] = RPMI 5 mM glucose + 10% FBS, 0.19 µM
[7] = RPMI 5 mM glucose + 10% FBS, 0.569 µM
[8] = RPMI 5 mM glucose + 10% FBS, 1.71 µM
[9] = RPMI 5 mM glucose + 10% FBS, 5.12 µM
[10] = RPMI 5 mM glucose + 10% FBS, 15.4 µM
[11] = RPMI 5 mM glucose + 10% FBS, 46.1 µM
[12] = RPMI 5 mM glucose + 10% dialyzed FBS, 0.000781 µM
[13] = RPMI 5 mM glucose + 10% dialyzed FBS, 0.00234 µM
[14] = RPMI 5 mM glucose + 10% dialyzed FBS, 0.00702 µM
[15] = RPMI 5 mM glucose + 10% dialyzed FBS, 0.0211 µM
[16] = RPMI 5 mM glucose + 10% dialyzed FBS, 0.0632 µM
[17] = RPMI 5 mM glucose + 10% dialyzed FBS, 0.19 µM
[18] = RPMI 5 mM glucose + 10% dialyzed FBS, 0.569 µM
[19] = RPMI 5 mM glucose + 10% dialyzed FBS, 1.71 µM
[20] = RPMI 5 mM glucose + 10% dialyzed FBS, 5.12 µM
[21] = RPMI 5 mM glucose + 10% dialyzed FBS, 15.4 µM
[22] = RPMI 5 mM glucose + 10% dialyzed FBS, 46.1 µM

Compound | cell viability (HPLM + 10% dialyzed FBS, 0.000781 µM) [%] | cell viability (HPLM + 10% dialyzed FBS, 0.00234 µM) [%] | cell viability (HPLM + 10% dialyzed FBS, 0.00702 µM) [%] | cell viability (HPLM + 10% dialyzed FBS, 0.0211 µM) [%] | cell viability (HPLM + 10% dialyzed FBS, 0.0632 µM) [%] | cell viability (HPLM + 10% dialyzed FBS, 0.19 µM) [%] | cell viability (HPLM + 10% dialyzed FBS, 0.569 µM) [%] | cell viability (HPLM + 10% dialyzed FBS, 1.71 µM) [%] | cell viability (HPLM + 10% dialyzed FBS, 5.12 µM) [%] | cell viability (HPLM + 10% dialyzed FBS, 15.4 µM) [%] | cell viability (HPLM + 10% dialyzed FBS, 46.1 µM) [%] | cell viability [1] [%] | cell viability [2] [%] | cell viability [3] [%] | cell viability [4] [%] | cell viability [5] [%] | cell viability [6] [%] | cell viability [7] [%] | cell viability [8] [%] | cell viability [9] [%] | cell viability [10] [%] | cell viability [11] [%] | cell viability [12] [%] | cell viability [13] [%] | cell viability [14] [%] | cell viability [15] [%] | cell viability [16] [%] | cell viability [17] [%] | cell viability [18] [%] | cell viability [19] [%] | cell viability [20] [%] | cell viability [21] [%] | cell viability [22] [%]
CC(C)NCC(O)COc1ccc(COCCOC(C)C)cc1 (stereo not given) | 114 | 110 | 121 | 113 | 122 | 99.8 | 118 | 109 | 109 | 95.4 | 73.1 | 108 | 116 | 108 | 107 | 114 | 116 | 107 | 110 | 97.3 | 103 | 91.4 | 111 | 111 | 119 | 105 | 129 | 111 | 111 | 99.7 | 111 | 116 | 88.7
CN\1C(=O)/C(=C(\N=C1N2CCCC[S+]2([O-])=O)C(=O)NCC3=CC=C(F)C=C3)O |  |  |  |  |  |  |  |  |  |  |  | 113 | 105 | 116 | 124 | 116 | 107 | 112 | 123 | 115 | 113 | 106 | 123 | 116 | 119 | 123 | 111 | 119 | 113 | 107 | 118 | 105 | 99.2
COc1cc2c(cc1OC)C1CC(=O)C(CC(C)C)CN1CC2 (stereo not given) |  |  |  |  |  |  |  |  |  |  |  | 116 | 106 | 106 | 104 | 134 | 117 | 116 | 104 | 113 | 113 | 103 | 117 | 133 | 109 | 115 | 148 | 124 | 128 | 121 | 115 | 110 | 125
COc1cc2c(cc1-c1c(C)noc1C)ncc1[nH]c(=O)n([C@H](C)c3ccccn3)c12 |  |  |  |  |  |  |  |  |  |  |  | 122 | 110 | 114 | 115 | 111 | 99.8 | 108 | 98.2 | 30.8 | 30.5 | 22 | 114 | 124 | 98.3 | 118 | 124 | 117 | 118 | 102 | 30.1 | 35.6 | 22.7
ClC1=C(N\C2=N\CCN2)C3=NSN=C3C=C1 |  |  |  |  |  |  |  |  |  |  |  | 108 | 119 | 120 | 123 | 112 | 118 | 119 | 135 | 117 | 125 | 144 | 107 | 127 | 114 | 132 | 133 | 128 | 140 | 143 | 161 | 153 | 140
CCC[C@H](NC(=O)/C(C#N)=C/c1cccc(Br)n1)c1ccccc1 |  |  |  |  |  |  |  |  |  |  |  | 110 | 123 | 116 | 111 | 111 | 107 | 103 | 108 | 104 | 111 | 4.55 | 109 | 114 | 122 | 115 | 109 | 117 | 120 | 116 | 108 | 99.9 | 4.54
CN(c1ncccc1CNc1nc(Nc2ccc3c(c2)CC(=O)N3)ncc1C(F)(F)F)[S+](C)(=O)[O-] |  |  |  |  |  |  |  |  |  |  |  | 112 | 113 | 115 | 105 | 116 | 116 | 99.3 | 103 | 97.7 | 93.9 | 18.7 | 104 | 107 | 116 | 106 | 117 | 117 | 124 | 104 | 114 | 86.5 | 20.6
C[C@H](NC(=O)/C(C#N)=C/c1cccc(Br)n1)c1ccccc1 |  |  |  |  |  |  |  |  |  |  |  | 104 | 104 | 123 | 112 | 119 | 98.1 | 103 | 87.7 | 19 | 8.24 | 7.32 | 99.5 | 115 | 109 | 114 | 107 | 129 | 115 | 93.8 | 38.8 | 8.68 | 6.9
CC1=CC=CC=C1N2\C(=N/C3=C(C(=CC=C3)C)C2=O)C[N]4C=NC5=C4N=CN=C5N |  |  |  |  |  |  |  |  |  |  |  | 107 | 106 | 122 | 108 | 110 | 106 | 107 | 94.4 | 69.2 | 72.9 | 67 | 108 | 109 | 109 | 97.1 | 113 | 92.6 | 94.8 | 80.8 | 67.2 | 64.5 | 61.1
CN1[C@@H]2CC[C@H]1CC(OC(=O)c1c[nH]c3ccccc13)C2 (stereo not given in full) |  |  |  |  |  |  |  |  |  |  |  | 115 | 125 | 120 | 114 | 129 | 112 | 106 | 117 | 124 | 114 | 99.3 | 119 | 127 | 119 | 107 | 109 | 115 | 113 | 118 | 119 | 104 | 94.9
CCN(CC)CC#CCOC(=O)C(O)(c1ccccc1)C1CCCCC1 (stereo not given) |  |  |  |  |  |  |  |  |  |  |  | 133 | 115 | 122 | 113 | 138 | 127 | 117 | 137 | 120 | 125 | 117 | 128 | 121 | 120 | 124 | 140 | 123 | 140 | 132 | 135 | 134 | 120
CC(N[C@H]1C[C@@H]1c1ccccc1)c1ccc2c(c1)OCCO2 (stereo not given in full) |  |  |  |  |  |  |  |  |  |  |  | 105 | 117 | 116 | 106 | 103 | 102 | 113 | 112 | 114 | 98.7 | 109 | 115 | 124 | 115 | 126 | 119 | 114 | 126 | 123 | 110 | 118 | 111

— the supplement of paper PMC11451515
